Experimental data published in ChEMBL document CHEMBL3886171, “Compounds and compositions for the inhibition of NAMPT” (2015).

Biological target: Nicotinamide phosphoribosyltransferase (Homo sapiens, UniProt P43490)
Experiment: Biochemical Inhibition Assay: The NAMPT enzymatic reactions were carried out in Buffer A (50 mM Hepes pH 7.5, 50 mM NaCl, 5 mM MgCl2, and 1 mM THP) in 96-well V-bottom plates. The compound titrations were performed in a separate dilution plate by serially diluting the compounds in DMSO to make a 100x stock. Buffer A (89 uL) containing 33 nM of NAMPT protein was added to 1 uL of 100x compound …
Description: Biochemical Inhibition Assay: The NAMPT enzymatic reactions were carried out in Buffer A (50 mM Hepes pH 7.5, 50 mM NaCl, 5 mM MgCl2, and 1 mM THP) in 96-well V-bottom plates. The compound titrations were performed in a separate dilution plate by serially diluting the compounds in DMSO to make a 100x stock. […] The compound and enzyme mix was incubated for 15 minutes at room temperature, then 10 uL of 10x substrate and co-factors in Buffer A were added to the test well to make a final concentration of 1 uM NAM, 100 uM 5-Phospho-D-ribose 1-diphosphate (PRPP), and 2.5 mM Adenosine 5'-triphosphate (ATP). The reaction was allowed to proceed for 30 minutes at room temperature, then was quenched with the addition of 11 uL of a solution of formic acid and L-Cystathionine to make a final concentration of 1% formic acid and 10 uM L-Cystathionine.

Sequence of Nicotinamide phosphoribosyltransferase (P43490 whole entry): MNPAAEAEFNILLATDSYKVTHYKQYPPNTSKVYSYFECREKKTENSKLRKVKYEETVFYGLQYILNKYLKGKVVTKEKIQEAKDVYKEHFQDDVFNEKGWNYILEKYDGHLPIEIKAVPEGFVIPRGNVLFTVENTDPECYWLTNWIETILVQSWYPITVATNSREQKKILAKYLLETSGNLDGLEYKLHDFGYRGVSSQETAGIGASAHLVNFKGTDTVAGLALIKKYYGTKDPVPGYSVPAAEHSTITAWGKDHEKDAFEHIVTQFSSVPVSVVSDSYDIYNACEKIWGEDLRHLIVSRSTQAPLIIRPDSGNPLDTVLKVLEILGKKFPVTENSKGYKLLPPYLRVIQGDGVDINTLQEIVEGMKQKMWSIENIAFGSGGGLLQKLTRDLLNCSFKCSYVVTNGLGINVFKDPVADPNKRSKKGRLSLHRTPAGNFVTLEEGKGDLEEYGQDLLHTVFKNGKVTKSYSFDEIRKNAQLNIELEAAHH

Cn1ncc2ccc(S(=O)(=O)c3ccc(NC(=O)/C=C/c4cccnc4)cc3)cc21 gave an IC50 of 2.6 nM.
